Assays:
Type in all cases: in vivo
[1] = tested on: potato tubers; test: Sprout inhibition after dipping tubers in 8 mM emulsions of purified compounds (Example 3); conditions: for % eyes sprouted: 8 mM emulsion with Tween 20, dipping 5 hours, then 10 days in jars at ambient temperature; for dormancy of tubers under repeated treatment: emulsion, dipped 5 hours, kept 10 days, then dipped again, after two months
Experimental: Therefore essential oils were purified by column chromatography and substantially pure compounds were used.
Emulsion of the compounds were prepared of 8 mM concentration of each compound in distilled water containing 2x10-6 % Tween 20 as emulsifier ( control tubers were treated with Tween 20 only). Tubers were treated by dipping each tuber in emulsion for 5 hours, where upon excess liquid was allowed to drain off. Six tubers per treatment were used, with two replicates, and all experiments were repeated once. Tubers were then kept in jars for 10 days at ambient temperature. Tubers were then evaluated as in example 1 & 2 for percentage of sprouted eyes, tuber texture and fungal growth.
Geranyl acetate inhibited sprouting by 42%. […] A&M plants 3 (3) no. 1452 pp 183].
Geraniol, citral, citranellol, citranellal and menthyl acetate were as effective as reported monoterpenes such as benzaldehyde, cinnamaldehyde, eugenol and thymol (U.S.patent no. 5,129,951).

[2] = tested on: potato tubers; test: Sprout inhibition by dipping in geraniol and citral at different concentrations (Example 4); conditions: for % eyes sprouted: dipping 5 hours, then 12 days in jars; for sprouting till 20 days after treatment: experiment continued till 20 days after treatment (6 and 8 mM)
Experimental: Tubers were treated with geraniol and citral the two promising chemicals at different concentrations. The terpenes were applied at 4mM, 6mM and 8m M for 5 hours by dipping the tubers and then the tubers were kept in jars for 12 days.

[3] = tested on: potato tubers; test: Sprout inhibition by exposure to vapours of volatilized compounds for seven days (Example 6); conditions: for % eyes sprouted: exposed to vapours (1 ml on filter paper, saturated atmosphere) for seven days, 14 days after removal; for sprouting 18 days after removal from treatment flask: exposed to vapours for seven days
Text: Tubers treated with emulsions of different aromatic compounds remained dormant. Therefore, it was tried to find out the response when tubers were exposed to vapours of volatilized compounds for sprout inhibition. Substantially pure compounds were used as in other examples. Six potatoes were placed in air tight jars containing 9 cm piece of filter paper saturated with one ml of the liquid compound. These amounts were sufficient to produce a saturated atmosphere in the flask. The filter paper was placed in the cap of the flask so that no direct physical contact with the tuber occurred. The tubers were removed after seven days and placed in flasks containing fresh air at ambient temperature. Control tubers were placed in sealed flask lacking any added compound. […] Such short term treatment would greatly lessen costs to the potato industry.

[4] = tested on: potato tubers; test: Sprout inhibition by dipping in combinations of monoterpenes and other compounds (Example 5); conditions: dipping five hours in aqueous solution with Tween 20, 4-8 mM
Experimental: Combination of 4-8 mM of each geraniol, citral , citronella and citronellal were tried to determine the best combination. Along with this some other compounds were also tried. The terpenes were applied by dipping the tubers for five hours in aqueous solution of the monoterpenes containing Tween 20 as emulsifying agent. […] Other chemicals were not very effective. Results are given in table 5.Menthol, anisaldehyde, thymol, cinnamom bark oil and thymol has been used earlier (U.S. Patent No. 5,129,951 ) and were effective.

[5] = tested on: potato tubers; test: Sprout inhibition by exposure to fumes of citral from a vaporizer for 1, 2 or 4 days (Example 7); conditions: 14 days after treatment
Experimental: The tubers were exposed to fumes of citral with the help of a vaporizer at ambient temperature in a close atmosphere for 24 hour, 48 hour and 96 hours. The tubers were then placed in flask containing fresh air and free of any additional volatilized compound. Control tubers were placed in sealed flasks lacking any added compounds. Fourteen days after treatment all tubers examined for percentage of eyes sprouted, tuber texture and fungal growth. 7

[6] = 8 mM emulsion, dipping 5 hours, 10 days

Row | Compound | % eyes sprouted [1] | effect on tuber sprouting (in words) [1, 6] | % eyes sprouted [3] | sprouting 18 days after removal from treatment flask [3] | % eyes sprouted After 3 days [4] | % eyes sprouted after 7 days [4] | % eyes sprouted after 14 days [4] | other results
1 | CC(C)=CCC/C(C)=C/CO [Geraniol] | 16% | completely inhibited sprouting | 0.0% | remained unsprouted |  |  |  | dormancy of tubers under repeated treatment [1]: completely dormant; % eyes sprouted ([2]; 4mM): 7.5%; % eyes sprouted ([2]; 6mM): 0.0%; % eyes sprouted ([2]; 8 mM): 0.0%; sprouting till 20 days after treatment [2]: sprouting was not observed
2 | CC12CCC(CC1=O)C2(C)C (stereo not drawn) [Camphor] | 89% | no significant effect |  |  |  |  |  | 
3 | Cc1ccc(C(C)C)c(O)c1 [Thymol] |  |  |  |  | 79% | 98% | 98% | 
4 | CC(C)=CCC[C@@H](C)CCO [d-citronellol] | 17% |  | 0.0% | remained unsprouted |  |  |  | 
5 | CC(C)=CCC[C@H](C)CCO [l-citronellol] | 0.0% |  |  |  |  |  |  | 
6 | CC1CCC(C(C)C)C(O)C1 (stereo not drawn) [Menthol] |  |  |  |  | 29% | 29% | 29% | 
7 | CC(C)=CCCC(C)CC=O (stereo not drawn) [citronellal] |  |  | 0.0% | remained unsprouted |  |  |  | 
8 | COc1ccc(C=O)cc1 [Anisaldehyde] |  |  |  |  | 78% | 96% | 96% | 
9 | C=C(C)[C@@H]1CC=C(C)C(=O)C1 [I-carvone] | 100% | no significant effect |  |  |  |  |  | 
10 | C=CC(C)(O)CCC=C(C)C (stereo not drawn) [Linalool] | 100% | no significant effect |  |  |  |  |  | 
11 | CC(=O)OC1CC(C)CCC1C(C)C (stereo not drawn) [Menthyl acetate] |  |  | 0.0% | remained unsprouted | 0.0% | 0.0% | 0.0% | 
12 | CC(C)=CCCC(C)=CC=O [Citral] | 19% | completely inhibited sprouting | 0.0% | remained unsprouted |  |  |  | dormancy of tubers under repeated treatment [1]: completely dormant; % eyes sprouted ([2]; 4mM): 4.1%; % eyes sprouted ([2]; 6mM): 0.0%; % eyes sprouted ([2]; 8 mM): 0.0%; sprouting till 20 days after treatment [2]: sprouting was not observed; % eyes sprouted ([5]; exposure to fumes for 1 Day (24 hour)): 18.5%; % eyes sprouted ([5]; exposure to fumes for 2 Days (48 hour)): 8.3%; % eyes sprouted ([5]; exposure to fumes for 4 Days (96 hours)): 0.0%
13 | CC=Cc1ccc(OC)cc1 [Anethol] |  |  |  |  | 0.0% | 0.0% | 51% | 
14 | C=C(C)[C@H]1CC=C(C)C(=O)C1 [d-carvone] | 93% | no significant effect |  |  |  |  |  | 
15 | CC(=O)OC/C=C(\C)CCC=C(C)C [Geranyl acetate] | 58% |  |  |  |  |  |  | inhibited sprouting by [1, 6]: 42%

From patent publication EP1267623B1, “ACYCLIC MONOTERPENES AS ANTI-SPROUTING AGENTS FOR POTATO TUBERS” (COUNCIL OF SCIENTIFIC & INDUSTRIAL RESEARCH; An Indian …, priority 2000, dated 2001)
